The values that follow come from ChEMBL document CHEMBL3124783, “Study of the structural and dynamic effects in the FimH adhesin upon α-d-heptyl mannose binding” (J Med Chem, 2014).

Active and inactive are the calls of the source. No cut-off for these calls is given here.

For assay [1], the target named is Type 1 fimbrin D-mannose specific adhesin (Escherichia coli K-12) (UniProt P08191). Nature of the assay: Binding affinity to Escherichia coli J96 FimH lectin domain expressed in Escherichia coli C43 (DE3) by NMR analysis.
Sequence of Type 1 fimbrin D-mannose specific adhesin (Escherichia coli K-12) (P08191 whole entry, the tested form may be a part): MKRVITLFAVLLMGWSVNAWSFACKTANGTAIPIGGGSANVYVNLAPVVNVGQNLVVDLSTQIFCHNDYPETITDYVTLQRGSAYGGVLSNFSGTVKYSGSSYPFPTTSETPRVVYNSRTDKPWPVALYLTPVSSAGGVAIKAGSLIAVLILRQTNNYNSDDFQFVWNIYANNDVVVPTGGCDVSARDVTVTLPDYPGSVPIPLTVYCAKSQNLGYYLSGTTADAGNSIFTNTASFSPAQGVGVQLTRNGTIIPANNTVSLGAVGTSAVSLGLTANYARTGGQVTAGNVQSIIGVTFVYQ
A short description of assay [2]: Binding affinity to Escherichia coli J96 FimH lectin domain Y48A mutant expressed in Escherichia coli C43 (DE3) by direct ITC analysis. A general note: ITC needs no label: the signal is the heat of the interaction.
The nature of assay [3]: Binding affinity to Escherichia coli FimH lectin domain.
Another assay relates to Escherichia coli J96. In words: Selectivity ratio of Kd for Escherichia coli J96 FimH lectin domain Y48A mutant to Kd for Escherichia coli J96 wild type FimH lectin domain.
For assay [4], the target named is Type 1 fimbrin D-mannose specific adhesin (Escherichia coli K-12, UniProt P08191). Nature of the assay: Binding affinity to Escherichia coli J96 wild type FimH lectin domain expressed in Escherichia coli C43 (DE3) by direct ITC analysis.
Sequence of Type 1 fimbrin D-mannose specific adhesin (P08191 whole entry, the tested form may be a part): as above
Assay [5] addresses Type 1 fimbrin D-mannose specific adhesin (Escherichia coli K-12) (UniProt P08191). Nature of the assay: Binding affinity to Escherichia coli J96 FimH lectin domain expressed in Escherichia coli C43 (DE3) by SAXS analysis.

Turning to `CCCCCCCO[C@H]1O[C@H](CO)[C@@H](O)[C@H](O)[C@@H]1O`, the result in assay [1] and in assay [5] was Active. Besides, the Kd (in general, the constant that tells how readily two partners part at equilibrium) worked out at 94.3 nM in assay [2], 7 nM in assay [3] and 17.1 nM in assay [4]. In addition, in the assay with Escherichia coli J96, the Selectivity ratio is 5.
